Experimental findings from US20130324413A1, “METHOD FOR PROMOTING PLANT GROWTH” (SUMITOMO CHEMICAL COMPANY, LIMITED, priority 2011, published 2013) are described below.

The subject of this assay is corn plants (cultivar: Koshu). As to the kind of experiment: Test Example 3: corn seed soaking, fresh weight of above-ground part. It is filed as in vivo. The method, then:
Each of the 1,000-fold concentrated dimethylsulfoxide (DMSO) solutions of compound (1b) was 1,000-fold diluted with water to prepare a soultion of compound (1b) at the test concentration. The solution was dispensed in 30 ml aliquots into […] Petri dishes, in which seeds of corn plants (cultivar: Koshu) were soaked and incubated for 16 hours at 24° C. in the dark. The corn seeds (cultivar: Koshu) were sown in the culture soil (AISAI) in the plastic pots (55 mm in diameter×58 mm in height), and corn seedlings were grown for 18 days under the following, conditions: temperature, 27° C.; illuminance, about 5,000 lux; day length, 16 hours. As a control, a 0.1% aqueous DMSO solution was prepared, and seeds were soaked in this solution and then sown and grown into seedlings in the same way as described above. This group was used as the non-treated group. The fresh weight of the above-ground part of the corn seedlings obtained above was measured. The experiment was performed in four replications for each individual plant at each treatment concentration and the average weight per individual was calculated.

In the case of `CNC(=O)C(OC)c1ccccc1COc1cc(C)ccc1C` (racemic) [Compound (1b), N-methyl-2-[2-(2,5-dimethylphenoxy)methyl]phenyl-2-methoxyacetamide], under “concentration of 3 ppm”, the “fresh weight of the above-ground part as compared with the non-treated group” value is on record as “increased”. Moreover, for the setting “seed soaking 3 ppm, 16 hours, grown 18 days, non-treated 4.47 g”, the “Average fresh weight of above-ground part” value came out at 6.60 g.
